Results from PMC6895180 (Nature Communications, 2019).
Values joined by “and” are separate entries in the source; they are usually repeats but may differ in a detail not shown here. Equal entries are not always repeated. Where two headings read alike, the source gives them in different places. Marks after values point to notes of the source that are not given here.

Columns and labels:
[1] = tested on: T. brucei Squib 427; assay: microbe, parasite or virus in culture; type: cell-based, Trypanosoma brucei brucei; conditions: for EC50: Trypanosoma brucei
Protocol: (§1) Drug susceptibility tests with Lister 427WT, TbAT1-KO[48], B48[26] and ISMR1[27] were performed using an assay based on the viability indicator dye resazurin in 96-well plates, each well containing 2 × 10^4 cells. The plates were incubated for 48 h with a doubling dilution series of the test compounds in HMI-9/fetal bovine serum at 37 °C/5% CO2 (23 dilutions starting at 100 µM, except for the pentamidine control (50 µM)), after which resazurin (20 µL of 125 µg mL^−1 resazurin sodium salt solution was added to each well (containing 200 µL of cells and test compound)) was added to each well and the plates incubated for another 24 h. Fluorescence was determined using a FLUOstar Optima (BMG Labtech, Durham, NC) and the results fitted to a sigmoid curve with variable slope using Prism 5.0 or Prism 7.04 (GraphPad, San Diego, CA).
(§2) Susceptibility assays with T. brucei Squib 427[49] or T. b. rhodesiense STIB-900[50] were performed under similar conditions as above, but using 10 concentrations of a 4-fold compound dilution series starting at 64 µM. Trypanosoma brucei Squib 427 was seeded at 1.5 × 10^4 parasites/well and T. b. rhodesiense at 4 × 10^3 parasites per well, followed by the addition of resazurin (final concentration of 10 µg mL^−1) after 24 h (T. brucei) or 6 h (T. b. rhodesiense).

[2] = tested on: T. b. rhodesiense STIB-900; assay: microbe, parasite or virus in culture; type: cell-based, Trypanosoma brucei rhodesiense
Protocol: as §1, §2

[3] = Cytotoxicity on MRC-5 fibroblasts (resazurin); type: cell-based, human; conditions: human
Protocol: Cytotoxicity assays were performed on MRC-5SV2 (Sigma-Aldrich/ECACC, catalogue number 84100401) human embryonic lung fibroblasts, which were cultured in minimum essential medium with Earle’s salt medium, supplemented with L-glutamine, NaHCO3 and 5% inactivated foetal calf serum. All cultures and assays were conducted at 37 °C with 5% CO2. Ten microliters of the aqueous compound dilutions were added to 190 µL of MRC-5SV2 (3 × 10^4 cells mL^−1). Cell growth was compared to untreated control wells (100% cell growth) and medium control wells (0% cell growth). After a 3-day incubation, cell viability was assessed fluorimetrically after the addition of 50 μL resazurin per well (final concentration of 10 µg mL^−1). After 4 h at 37 °C, fluorescence was measured (λex 550 nm, λem 590 nm). The results were expressed as percentage reduction in cell growth/viability compared to control wells and an EC50 was determined.

[4] = tested on: T. b. brucei Lister 427WT; assay: Drug susceptibility test (resazurin), Lister 427WT; type: cell-based, Trypanosoma brucei brucei; conditions: Trypanosoma brucei
Protocol: as §1

[5] = tested on: ISMR1: isometamidium-resistant T. brucei cell line; assay: microbe, parasite or virus in culture; type: cell-based, Trypanosoma brucei brucei
Protocol: as §1

[6] = tested on: TbAT1-KO: T. brucei cell line lacking the TbAT1(P2) transporter gene; assay: microbe, parasite or virus in culture; type: cell-based, Trypanosoma brucei brucei
Protocol: as §1

[7] = tested on: B48: pentamidine, diminazene and melaminophenyl arsenical resistant T. brucei line; assay: microbe, parasite or virus in culture; type: cell-based, Trypanosoma brucei brucei; conditions: for EC50: Trypanosoma brucei
[8] = molecular target: Lister 427WT T. b. brucei; assay: Adenosine deaminase susceptibility (drug sensitivity with/without 2 µM deoxycoformycin); type: cell-based, Trypanosoma brucei brucei; conditions: for EC50: Trypanosoma brucei, Lister 427WT, mean ± SEM, n=3
Protocol: as §1, with “CA). […]” for “CA).”
Adenosine deaminase susceptibility
in the presence or absence of 2 µM 2’-deoxycoformycin. […]

[9] = design: method as in earlier work; conditions: ref 36 (Olsen, D. B. et al.), cited from earlier work
[10] = tested on: Nc1ncnc2c1ncn2[C@@H]1O[C@H](CO)[C@@H](O)[C@H]1O; assay: cells, lysate or membranes; conditions: other: mean ± SEM, n = 3; pH 7.3
Protocol: Non-specific association of radiolabel with the cell pellet was determined using an identical incubation in the presence of saturating (1 mM) unlabelled adenosine.

[11] = substrate: Nc1ncnc2c1ccn2[C@@H]1O[C@H](CO)C[C@H]1O; assay: ADKIN assay (phosphorylation by purified recombinant enzyme, HPLC); type: biochemical, Trypanosoma brucei; conditions: other: first phosphorylation step; mean and SE, n = 3; pH 7.5
Protocol: The T. brucei ADKIN enzyme was diluted in a buffer containing 0.05% (v/v) Tween-20, 50 mM KCl, 0.1 mM dithiothreitol, and 50 mM Tris-HCl, pH 7.5 (dilution buffer), prior to use in the assay. The final assay mixture contained 12.5 ng T. brucei ADKIN, a range between 50 and 1000 µM of nucleoside 9 (or 1000 µM deoxyadenosine in the control reaction), 100 mM KCl, 10 mM MgCl2, 0.5 mM ATP, 5 mM potassium phosphate and 50 mM Tris-HCl, pH 7.5. The assay was incubated at 37 °C for 30 min, and subsequently heated for 2 min at 100 °C to inactivate the enzyme, diluted with 2 volumes of water, centrifuged through a Nanosep 3k Omega filter and mixed 1:1:2 with water and mobile phase. The HPLC analysis was performed on a 2.1 × 150 mm ACE Excel C18 column using a mobile phase composition 4A:76B:20C (see nucleotide pool analysis, Supplementary Information for details). Using these conditions, consecutive samples could be loaded (Supplementary Fig. 12). After 4–5 samples, the column was washed with high percent A (80A:20C) to remove bound ADP and ATP before re-equilibrating the column to original conditions.

Nc1ncnc2c1ccn2[C@@H]1O[C@H](CO)[C@@H](O)[C@H]1O [Compound 6, Tubercidin, reference compound]
SI (MRC/T.b. brucei) [1]: 4 | EC50 ([1]; Alamar blue cell viability assay, mean and SEM, read-out: T. b. brucei EC50): 480 ± 100 nM | EC50 ([1]; source data, read-out: T. brucei brucei EC50, Average): 480 nM | SI (MRC/T.b. rhodesiense) [2]: 61 | EC50 ([2]; Trypanosoma brucei, RHODESIENSE, Alamar blue cell viability assay, mean and SEM, read-out: T. b. rhodesiense EC50): 36 ± 1 nM | EC50 ([2]; Trypanosoma brucei, RHODESIENSE, source data, read-out: T. brucei rhodesiense EC50, Average): 36 nM | EC50 ([2]; Trypanosoma brucei, RHODESIENSE, source data, read-out: T. brucei rhodesiense EC50, single measurements): 35 nM | EC50 ([2]; source data, read-out: T. brucei rhodesiense EC50, single measurements): 33.2 nM and 39.9 nM | EC50 at 3 day ([3]; cytotoxicity in human MRC-5 fibroblasts, mean and SEM, read-out: MRC-5 EC50): 2200 ± 700 nM | EC50 at 3 day ([3]; source data, read-out: MRC-5 EC50, Average): 2230 nM | EC50 ([4]; mean and SEM, n = 3, read-out: Lister 427 EC50): 150 ± 30 nM | EC50 ([4]; source data, read-out: s427 EC50, AVG): 151 nM | EC50 ([5]; Trypanosoma brucei, mean and SEM, n = 3, read-out: ISMR1 EC50): 1700 ± 500 nM | EC50 ([5]; Trypanosoma brucei, source data, read-out: ISMR1 EC50, AVG): 1670 nM | EC50 ([5]; Trypanosoma brucei, source data, read-out: ISMR1 EC50, single determinations): 2150 nM | RF (ISMR1) ([5]; resistance factor vs Lister 427WT): 11.1** | EC50 ([5]; source data, read-out: ISMR1 EC50, single determinations): 1190 nM | EC50 ([6]; Trypanosoma brucei, read-out: TbAT1-KO EC50, mean and SEM, n = 3): 2610 ± 700 nM | EC50 ([6]; Trypanosoma brucei, read-out: TbAT1-KO EC50, single determinations, source data): 3260 nM | EC50 ([6]; read-out: TbAT1-KO EC50, single determinations, source data): 1950 nM | RF (TbAT1-KO) ([6]; resistance factor: ratio of EC50 of resistant and Lister 427WT): 17.2** | RF (B48) [7]: 28.7* | EC50 ([7]; mean and SEM, n = 3, read-out: B48 EC50): 4300 ± 1300 nM | EC50 ([7]; source data, read-out: B48 EC50, AVG): 4340 nM | effect of adenosine deaminase inhibition (2’-deoxycoformycin) on EC50 [8]: not significantly affected | EC50 ([8]; absence of deoxycoformycin, read-out: T. b. brucei EC50, -Dcf): 220 ± 10 nM | EC50 ([8]; presence of 2 µM deoxycoformycin, read-out: T. b. brucei EC50, +Dcf): 310 ± 70 nM | acute toxicity in mice ([9]; 20 mg/kg over 14 days): tolerated with no visible signs of toxicity | acute toxicity in mice ([9]; 50 mg/kg): lethal

P2 transporter (TbAT1) (Trypanosoma brucei)
Km [10]: 0.53 ± 0.02 µM

B1: T. brucei ADKIN (Trypanosoma brucei brucei TREU927) (protein)
chain: MSSAPLRVYVQCNPLLDVSAHVSDEFLVKYGLERGTAILLSERQKGIFDDIEKMPNVRYVPGGSGLNVARVAQWMQQAYKGKFVTYVGCIADDRYGKVLKEAAEHEGIVMAVEHTTKAGSGACAVCITGKERTLVADLGAANHLSSEHMRSPAVVRAMDESRIFYFSGFTLTVDVNHVLQACRKAREVDGLFMINLSAPFIMQFFSAQLGEVLPYTDIIVANRHEAKEFANMMKWDTDCVEEIARRAVSEVPYTGTKGRVVVFTRDIEPTVIATKDGVETVPVPQLDQDKVIDMNGAGDAFVGGFLSAYAVGKDLRRCCETGHYTAQEVIQQDGCSFPEKPSFSP
Km [11]: 195 ± 24 µM
